From PMC8333425, “Discovery of a dual Ras and ARF6 inhibitor from a GPCR endocytosis screen” (Nature Communications, 2021)

How the values were obtained:
Assay in all cases: KINOMEscan kinase binding assay
[1] = target: T1, 384 kinases from the human genome (Homo sapiens, UniProt Q9H3Y6); details: kinase SRMS (Entrez SRMS)
T1 construct: purchased Eurofin/DiscoverX
Summary of the method: (§1)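 Competition binding (KINOMEscan) across 384 human kinases with compound at 10 µM. Ligand binding was expressed relative to DMSO (100%) as the average of duplicates from one experiment. S(10) selectivity score was derived.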

[2] = target: T2, 384 kinases from the human genome (Homo sapiens, UniProt O43683); details: kinase BUB1 (Entrez BUB1)
T2 construct: purchased Eurofin/DiscoverX
Summary of the method: as §1

[3] = target: T3, 384 kinases from the human genome (Homo sapiens, UniProt Q04771); details: kinase ACVR1 (Entrez ACVR1)
T3 construct: purchased Eurofin/DiscoverX
Summary of the method: as §1

[4] = target: T4, 384 kinases from the human genome (Homo sapiens, UniProt Q86UE8); details: kinase TLK2 (Entrez TLK2)
T4 construct: purchased Eurofin/DiscoverX
Summary of the method: as §1

[5] = target: T5, 384 kinases from the human genome (Homo sapiens, UniProt Q96Q40); details: kinase PFTAIRE2 (Entrez CDK15)
T5 construct: purchased Eurofin/DiscoverX
Summary of the method: as §1

[6] = target: T6, 384 kinases from the human genome (Homo sapiens, UniProt Q9BX84); details: kinase TRPM6 (Entrez TRPM6)
T6 construct: purchased Eurofin/DiscoverX
Summary of the method: as §1

[7] = target: T7, 384 kinases from the human genome (Homo sapiens, UniProt O14976); details: kinase GAK (Entrez GAK)
T7 construct: purchased Eurofin/DiscoverX
Summary of the method: as §1

[8] = target: T8, 384 kinases from the human genome (Homo sapiens, UniProt Q13153); details: kinase PAK1 (Entrez PAK1)
T8 construct: purchased Eurofin/DiscoverX
Summary of the method: as §1

[9] = target: T9, 384 kinases from the human genome (Homo sapiens, UniProt Q96PY6); details: kinase NEK1 (Entrez NEK1)
T9 construct: purchased Eurofin/DiscoverX
Summary of the method: as §1

[10] = target: T10, 384 kinases from the human genome (Homo sapiens, UniProt Q16566); details: kinase CAMK4 (Entrez CAMK4)
T10 construct: purchased Eurofin/DiscoverX
Summary of the method: as §1

[11] = target: T11, 384 kinases from the human genome (Homo sapiens, UniProt Q96NX5); details: kinase CAMK1G (Entrez CAMK1G)
T11 construct: purchased Eurofin/DiscoverX
Summary of the method: as §1

[12] = target: T12, 384 kinases from the human genome (Homo sapiens, UniProt P24723); details: kinase PRKCH (Entrez PRKCH)
T12 construct: purchased Eurofin/DiscoverX
Summary of the method: as §1

[13] = target: T13, 384 kinases from the human genome (Homo sapiens, UniProt Q6P3R8); details: kinase NEK5 (Entrez NEK5)
T13 construct: purchased Eurofin/DiscoverX
Summary of the method: as §1

[14] = target: T14, 384 kinases from the human genome (Homo sapiens, UniProt Q13237); details: kinase PRKG2 (Entrez PRKG2)
T14 construct: purchased Eurofin/DiscoverX
Summary of the method: as §1

[15] = target: T15, 384 kinases from the human genome (Homo sapiens, UniProt P11309); details: kinase PIM1 (Entrez PIM1)
T15 construct: purchased Eurofin/DiscoverX
Summary of the method: as §1

[16] = target: T16, 384 kinases from the human genome (Homo sapiens, UniProt Q99755); details: kinase PIP5K1A (Entrez PIP5K1A)
T16 construct: purchased Eurofin/DiscoverX
Summary of the method: as §1

[17] = target: T17, 384 kinases from the human genome (Homo sapiens, UniProt P31749); details: kinase AKT1 (Entrez AKT1)
T17 construct: purchased Eurofin/DiscoverX
Summary of the method: as §1

[18] = target: T18, 384 kinases from the human genome (Homo sapiens, UniProt Q96J92); details: kinase WNK4 (Entrez WNK4)
T18 construct: purchased Eurofin/DiscoverX
Summary of the method: as §1

[19] = target: T19, 384 kinases from the human genome (Homo sapiens, UniProt Q05655); details: kinase PRKCD (Entrez PRKCD)
T19 construct: purchased Eurofin/DiscoverX
Summary of the method: as §1

[20] = target: T20, 384 kinases from the human genome (Homo sapiens, UniProt Q12866); details: kinase MERTK (Entrez MERTK)
T20 construct: purchased Eurofin/DiscoverX
Summary of the method: as §1

[21] = target: T21, 384 kinases from the human genome (Homo sapiens, UniProt Q86YV6); details: kinase MYLK4 (Entrez MYLK4)
T21 construct: purchased Eurofin/DiscoverX
Summary of the method: as §1

[22] = target: T22, 384 kinases from the human genome (Homo sapiens, UniProt P28482); details: kinase ERK2 (Entrez MAPK1)
T22 construct: purchased Eurofin/DiscoverX
Summary of the method: as §1

[23] = target: T23, 384 kinases from the human genome (Homo sapiens, UniProt Q13705); details: kinase ACVR2B (Entrez ACVR2B)
T23 construct: purchased Eurofin/DiscoverX
Summary of the method: as §1

[24] = target: T24, 384 kinases from the human genome (Homo sapiens, UniProt P42685); details: kinase FRK (Entrez FRK)
T24 construct: purchased Eurofin/DiscoverX
Summary of the method: as §1

[25] = target: T25, 384 kinases from the human genome (Homo sapiens, UniProt Q02156); details: kinase PRKCE (Entrez PRKCE)
T25 construct: purchased Eurofin/DiscoverX
Summary of the method: as §1

[26] = target: T26, 384 kinases from the human genome (Homo sapiens, UniProt Q9UQB9); details: kinase AURKC (Entrez AURKC)
T26 construct: purchased Eurofin/DiscoverX
Summary of the method: as §1

T20 sequence (Q12866 21-999): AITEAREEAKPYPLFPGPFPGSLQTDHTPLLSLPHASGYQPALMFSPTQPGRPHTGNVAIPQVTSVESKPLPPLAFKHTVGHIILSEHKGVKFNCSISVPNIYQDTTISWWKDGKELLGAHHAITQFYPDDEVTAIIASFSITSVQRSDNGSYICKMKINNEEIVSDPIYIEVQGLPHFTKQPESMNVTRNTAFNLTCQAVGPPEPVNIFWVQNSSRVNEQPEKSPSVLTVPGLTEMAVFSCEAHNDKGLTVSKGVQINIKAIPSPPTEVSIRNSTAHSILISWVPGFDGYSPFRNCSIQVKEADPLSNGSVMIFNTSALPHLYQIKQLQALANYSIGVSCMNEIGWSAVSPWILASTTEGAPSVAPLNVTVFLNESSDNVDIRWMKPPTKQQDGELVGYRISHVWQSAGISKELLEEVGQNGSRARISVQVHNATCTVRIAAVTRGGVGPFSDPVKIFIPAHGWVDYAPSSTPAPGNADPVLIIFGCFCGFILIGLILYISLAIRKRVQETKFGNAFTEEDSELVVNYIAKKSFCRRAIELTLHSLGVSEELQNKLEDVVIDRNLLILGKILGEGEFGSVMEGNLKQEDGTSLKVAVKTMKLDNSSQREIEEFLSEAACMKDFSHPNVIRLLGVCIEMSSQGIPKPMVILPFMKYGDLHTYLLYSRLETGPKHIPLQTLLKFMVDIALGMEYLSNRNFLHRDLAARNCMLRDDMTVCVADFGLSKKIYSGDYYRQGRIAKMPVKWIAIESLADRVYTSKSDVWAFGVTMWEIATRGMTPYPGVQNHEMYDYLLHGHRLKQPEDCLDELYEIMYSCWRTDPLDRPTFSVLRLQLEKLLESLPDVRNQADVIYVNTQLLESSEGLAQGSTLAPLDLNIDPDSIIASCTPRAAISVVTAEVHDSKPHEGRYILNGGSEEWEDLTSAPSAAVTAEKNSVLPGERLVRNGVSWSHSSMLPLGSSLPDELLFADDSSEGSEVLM
T15 sequence (P11309 whole entry): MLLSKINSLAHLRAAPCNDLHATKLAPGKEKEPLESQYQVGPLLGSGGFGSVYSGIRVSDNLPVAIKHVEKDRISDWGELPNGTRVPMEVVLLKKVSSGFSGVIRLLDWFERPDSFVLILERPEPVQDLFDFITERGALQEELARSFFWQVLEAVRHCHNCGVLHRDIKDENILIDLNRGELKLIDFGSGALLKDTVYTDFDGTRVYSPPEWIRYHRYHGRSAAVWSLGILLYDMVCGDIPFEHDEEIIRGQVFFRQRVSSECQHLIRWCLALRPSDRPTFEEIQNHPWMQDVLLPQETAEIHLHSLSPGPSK
T19 sequence (Q05655 whole entry): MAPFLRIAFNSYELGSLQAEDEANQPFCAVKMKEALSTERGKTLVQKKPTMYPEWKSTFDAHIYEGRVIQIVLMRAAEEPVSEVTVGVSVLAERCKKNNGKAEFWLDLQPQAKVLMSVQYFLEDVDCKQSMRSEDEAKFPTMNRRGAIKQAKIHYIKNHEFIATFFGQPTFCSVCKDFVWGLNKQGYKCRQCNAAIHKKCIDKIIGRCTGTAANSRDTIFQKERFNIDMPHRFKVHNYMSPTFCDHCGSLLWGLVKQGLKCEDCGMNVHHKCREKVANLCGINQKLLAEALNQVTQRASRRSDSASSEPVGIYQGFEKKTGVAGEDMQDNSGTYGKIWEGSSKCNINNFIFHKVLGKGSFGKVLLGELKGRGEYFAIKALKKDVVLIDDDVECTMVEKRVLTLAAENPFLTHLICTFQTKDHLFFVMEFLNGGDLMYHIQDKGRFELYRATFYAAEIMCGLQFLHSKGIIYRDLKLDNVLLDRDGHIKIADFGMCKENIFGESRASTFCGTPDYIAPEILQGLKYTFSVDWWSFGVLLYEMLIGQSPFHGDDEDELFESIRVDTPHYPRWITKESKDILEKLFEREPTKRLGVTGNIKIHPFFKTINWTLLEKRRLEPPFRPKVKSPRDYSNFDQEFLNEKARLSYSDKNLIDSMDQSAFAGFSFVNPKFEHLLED
T21 sequence (Q86YV6 whole entry): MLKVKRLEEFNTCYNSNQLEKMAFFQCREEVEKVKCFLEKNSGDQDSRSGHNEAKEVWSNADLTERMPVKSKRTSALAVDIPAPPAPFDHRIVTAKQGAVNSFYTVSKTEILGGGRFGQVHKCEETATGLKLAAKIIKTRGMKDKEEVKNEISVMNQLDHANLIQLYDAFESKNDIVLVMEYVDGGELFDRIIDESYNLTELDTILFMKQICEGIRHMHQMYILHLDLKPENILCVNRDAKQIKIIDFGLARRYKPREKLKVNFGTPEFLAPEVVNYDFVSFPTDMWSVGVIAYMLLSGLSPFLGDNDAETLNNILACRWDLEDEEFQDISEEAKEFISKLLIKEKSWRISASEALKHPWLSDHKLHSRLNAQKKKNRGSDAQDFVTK
T6 sequence (Q9BX84 whole entry): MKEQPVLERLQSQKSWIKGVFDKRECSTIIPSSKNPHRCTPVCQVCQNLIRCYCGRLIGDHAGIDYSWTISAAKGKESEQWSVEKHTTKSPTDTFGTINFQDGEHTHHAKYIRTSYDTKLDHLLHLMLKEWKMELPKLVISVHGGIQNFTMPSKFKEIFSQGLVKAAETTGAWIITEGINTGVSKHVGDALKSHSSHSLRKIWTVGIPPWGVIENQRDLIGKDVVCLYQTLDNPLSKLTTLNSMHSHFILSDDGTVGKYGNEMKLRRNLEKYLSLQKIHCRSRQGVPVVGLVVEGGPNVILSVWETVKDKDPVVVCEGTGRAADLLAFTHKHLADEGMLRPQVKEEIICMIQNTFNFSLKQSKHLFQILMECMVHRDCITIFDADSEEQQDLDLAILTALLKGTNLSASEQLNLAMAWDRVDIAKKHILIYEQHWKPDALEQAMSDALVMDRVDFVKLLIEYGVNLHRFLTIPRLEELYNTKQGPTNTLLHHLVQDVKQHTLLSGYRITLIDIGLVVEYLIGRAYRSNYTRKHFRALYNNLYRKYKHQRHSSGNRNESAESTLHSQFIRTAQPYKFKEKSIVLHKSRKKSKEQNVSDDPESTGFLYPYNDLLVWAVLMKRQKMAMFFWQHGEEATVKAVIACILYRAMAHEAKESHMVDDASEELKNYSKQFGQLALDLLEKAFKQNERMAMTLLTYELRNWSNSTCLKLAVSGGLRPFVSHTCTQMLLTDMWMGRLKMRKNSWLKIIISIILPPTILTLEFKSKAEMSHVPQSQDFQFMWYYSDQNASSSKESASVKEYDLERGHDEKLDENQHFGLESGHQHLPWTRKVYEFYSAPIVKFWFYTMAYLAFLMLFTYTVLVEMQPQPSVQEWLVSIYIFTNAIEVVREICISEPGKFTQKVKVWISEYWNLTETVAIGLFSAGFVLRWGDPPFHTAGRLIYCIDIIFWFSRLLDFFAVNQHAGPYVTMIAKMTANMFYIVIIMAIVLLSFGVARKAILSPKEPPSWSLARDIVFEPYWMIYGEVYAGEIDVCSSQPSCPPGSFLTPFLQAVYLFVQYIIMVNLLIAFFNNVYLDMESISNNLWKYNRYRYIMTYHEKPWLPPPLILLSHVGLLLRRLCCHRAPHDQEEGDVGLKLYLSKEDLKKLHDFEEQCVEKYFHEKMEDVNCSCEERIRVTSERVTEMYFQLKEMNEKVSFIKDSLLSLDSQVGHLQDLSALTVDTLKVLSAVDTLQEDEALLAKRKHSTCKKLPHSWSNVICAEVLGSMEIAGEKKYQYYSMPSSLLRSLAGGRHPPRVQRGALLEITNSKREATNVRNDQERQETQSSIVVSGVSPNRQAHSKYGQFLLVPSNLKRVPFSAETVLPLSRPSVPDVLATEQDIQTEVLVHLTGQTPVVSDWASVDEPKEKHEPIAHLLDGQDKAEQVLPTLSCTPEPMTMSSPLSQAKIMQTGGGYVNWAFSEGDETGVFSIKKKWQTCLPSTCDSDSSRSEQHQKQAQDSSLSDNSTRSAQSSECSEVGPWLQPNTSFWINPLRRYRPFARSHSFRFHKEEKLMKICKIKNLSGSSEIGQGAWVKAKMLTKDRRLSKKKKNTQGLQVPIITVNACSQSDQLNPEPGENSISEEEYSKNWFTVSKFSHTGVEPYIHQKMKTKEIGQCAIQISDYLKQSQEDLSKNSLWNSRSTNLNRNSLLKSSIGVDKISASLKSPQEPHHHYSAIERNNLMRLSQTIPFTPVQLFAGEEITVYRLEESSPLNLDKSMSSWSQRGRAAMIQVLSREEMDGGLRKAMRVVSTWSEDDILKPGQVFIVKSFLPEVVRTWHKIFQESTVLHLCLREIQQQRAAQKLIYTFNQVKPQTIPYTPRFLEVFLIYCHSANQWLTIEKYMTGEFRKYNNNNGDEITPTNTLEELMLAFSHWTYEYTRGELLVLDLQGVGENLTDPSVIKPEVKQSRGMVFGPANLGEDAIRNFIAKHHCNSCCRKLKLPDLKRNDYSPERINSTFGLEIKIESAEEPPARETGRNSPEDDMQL
T17 sequence (P31749 whole entry): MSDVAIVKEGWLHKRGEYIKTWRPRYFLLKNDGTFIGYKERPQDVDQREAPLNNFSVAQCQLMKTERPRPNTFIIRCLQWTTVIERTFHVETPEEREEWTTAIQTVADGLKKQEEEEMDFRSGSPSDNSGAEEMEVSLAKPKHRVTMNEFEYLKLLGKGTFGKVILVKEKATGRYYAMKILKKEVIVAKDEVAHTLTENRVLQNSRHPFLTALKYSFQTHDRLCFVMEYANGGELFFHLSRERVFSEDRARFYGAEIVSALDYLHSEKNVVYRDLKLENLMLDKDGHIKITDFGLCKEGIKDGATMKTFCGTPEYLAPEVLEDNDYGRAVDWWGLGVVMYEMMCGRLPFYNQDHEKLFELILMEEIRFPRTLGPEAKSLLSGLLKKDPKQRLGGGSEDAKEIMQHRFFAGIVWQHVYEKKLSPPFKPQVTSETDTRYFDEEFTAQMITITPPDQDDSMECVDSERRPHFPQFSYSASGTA

For CC(C)C(=O)N1CCN(c2ccc(NC(=O)c3cc4ccccc4o3)cc2Cl)CC1 [Compound 21], the “Percent Control” value [1] was 100%, the “Percent Control” value [2] was 99% and the “Percent Control” value [3] was 70%. For the same molecule, the “Percent Control” value [4] was 100%, the “Percent Control” value [5] was 100% and the “Percent Control” value [6] was 81%. The “Percent Control” value [7] was 96%, the “Percent Control” value [8] was 92% and the “Percent Control” value [9] was 77%. For the same molecule, the “Percent Control” value [10] was 100%, the “Percent Control” value [11] was 100% and the “Percent Control” value [12] was 92%. For the same molecule, the “Percent Control” value [13] was 74%, the “Percent Control” value [14] was 92% and the “Percent Control” value [15] was 96%. For the same molecule, the “Percent Control” value [16] was 100%, the “Percent Control” value [17] was 97% and the “Percent Control” value [18] was 100%. For the same molecule, the “Percent Control” value [19] was 100%, the “Percent Control” value [20] was 70% and the “Percent Control” value [21] was 99%. The “Percent Control” value [22] was 97%, the “Percent Control” value [23] was 89% and the “Percent Control” value [24] was 79%. For the same molecule, the “Percent Control” value [25] was 99% and the “Percent Control” value [26] was 87%.
